“Also recorded” adds a separate entry of the source.
Key:
[1] = tested on: 49-day-old S. mansoni adult worms; test: In vitro experiments with adult worms of S. mansoni (mortality, motor activity); type: cell-based, Schistosoma mansoni; details: for Dead Worms (%) F / Motor Activity Reduction (%) Significant F / Motor Activity Reduction (%) Slight F: female worms; for Dead Worms (%) M / Motor Activity Reduction (%) Significant M / Motor Activity Reduction (%) Slight M: male worms
Method: The Belo Horizonte (BH) strain of S. mansoni was maintained in Biomphalaria glabrata snails and Mesocricetus auratus hamsters at the Adolfo Lutz Institute (São Paulo, Brazil) according to standard procedures. Detailed methods for the infection of molluscs and hamsters, as well as for the recovery of parasites, were as described previously. Briefly, the intermediate host snails were exposed to light for approximately 3 h and cercariae of S. mansoni were subsequently harvested. […] All animals were handled in strict accordance with good animal practice as defined by the Animal Use Ethics Committee. The preparations and culture of schistosomes was performed as previously described. Briefly, hamsters were killed 49 days after infection for the recovery of adult schistosomes. Next, fresh adult worm pairs (male and female) were washed and placed in a 24-well culture plate (TPP, St. […] Adult schistosomes were maintained continuously in medium (with or without drugs) for 96 h as described below. In vitro assays in S. mansoni adults were performed with mated males and females. The worm pairs obtained from the infusion hamsters were washed twice with RPMI 1640 medium containing 200 U/mL penicillin, 200 μg/mL streptomycin and 2 μg/mL amphotericin B (Vitrocell, Campinas, Brazil). The mated parasites were then transferred into 24-well cell culture plates (TPP, St. […] Cultures of adult worms were monitored by microscopy or magnifying glass. The effect of the drug was assessed with emphasis on changes in worm motor activity and death of worms as previously described.

[2] = tested on: murine fibroblast (NIH-3T3) cells; test: MTT cytotoxicity assay in murine fibroblasts; type: cell-based
Method: Next, the medium was removed and various concentrations (25–800 µg/mL) of samples reconstituted in 3% DMSO were applied. DMSO (3%) was used as a control. The plates were incubated for 24 h. Next, 15 µL of MTT solution (5 mg/mL in phosphate buffer) was added to each well and the plates were incubated for 2 h. Medium was discarded and 100 µL of DMSO was added to each well. Absorbance was determined using a spectrophotometer with a microplate reader at 595 nm (Molecular Devices Corporation, Sunnyvale, CA, USA).

[3] = tested on: mouse BALB/cN macrophage (J774A.1) cell line; test: Cell viability by flow cytometry in macrophages; details: 24 h, 25, 100 and 400 µg/mL, vs DMEM control

COc1cc(/C=C/C(=O)N2CCCC2)cc(OC)c1OC [Compound 1G]
Dead Worms (%) F ([1]; 5 µM, 24 h): 0%
Motor Activity Reduction (%) Significant F ([1]; 5 µM, 24 h): 0%
Motor Activity Reduction (%) Slight F ([1]; 5 µM, 24 h): 0%
Dead Worms (%) M ([1]; 5 µM, 24 h): 0%
Motor Activity Reduction (%) Significant M ([1]; 5 µM, 24 h): 0%
Motor Activity Reduction (%) Slight M ([1]; 5 µM, 24 h): 0%
Dead Worms (%) F ([1]; 5 µM, 48 h): 0%
Motor Activity Reduction (%) Significant F ([1]; 5 µM, 48 h): 0%
Motor Activity Reduction (%) Slight F ([1]; 5 µM, 48 h): 0%
Dead Worms (%) M ([1]; 5 µM, 48 h): 0%
Motor Activity Reduction (%) Significant M ([1]; 5 µM, 48 h): 0%
Motor Activity Reduction (%) Slight M ([1]; 5 µM, 48 h): 0%
Dead Worms (%) F ([1]; 5 µM, 72 h): 0%
Motor Activity Reduction (%) Significant F ([1]; 5 µM, 72 h): 0%
Motor Activity Reduction (%) Slight F ([1]; 5 µM, 72 h): 0%
Dead Worms (%) M ([1]; 5 µM, 72 h): 0%
Motor Activity Reduction (%) Significant M ([1]; 5 µM, 72 h): 0%
Motor Activity Reduction (%) Slight M ([1]; 5 µM, 72 h): 0%
Dead Worms (%) F ([1]; 5 µM, 96 h): 0%
Motor Activity Reduction (%) Significant F ([1]; 5 µM, 96 h): 0%
Motor Activity Reduction (%) Slight F ([1]; 5 µM, 96 h): 0%
Dead Worms (%) M ([1]; 5 µM, 96 h): 0%
Motor Activity Reduction (%) Significant M ([1]; 5 µM, 96 h): 0%
Motor Activity Reduction (%) Slight M ([1]; 5 µM, 96 h): 0%
Dead Worms (%) F ([1]; 10 µM, 24 h): 0%
Motor Activity Reduction (%) Significant F ([1]; 10 µM, 24 h): 0%
Motor Activity Reduction (%) Slight F ([1]; 10 µM, 24 h): 0%
Dead Worms (%) M ([1]; 10 µM, 24 h): 0%
Motor Activity Reduction (%) Significant M ([1]; 10 µM, 24 h): 0%
Motor Activity Reduction (%) Slight M ([1]; 10 µM, 24 h): 0%
Dead Worms (%) F ([1]; 10 µM, 48 h): 0%
Motor Activity Reduction (%) Significant F ([1]; 10 µM, 48 h): 0%
Motor Activity Reduction (%) Slight F ([1]; 10 µM, 48 h): 0%
Dead Worms (%) M ([1]; 10 µM, 48 h): 0%
Motor Activity Reduction (%) Significant M ([1]; 10 µM, 48 h): 0%
Motor Activity Reduction (%) Slight M ([1]; 10 µM, 48 h): 0%
Dead Worms (%) F ([1]; 10 µM, 72 h): 0%
Motor Activity Reduction (%) Significant F ([1]; 10 µM, 72 h): 0%
Motor Activity Reduction (%) Slight F ([1]; 10 µM, 72 h): 0%
Dead Worms (%) M ([1]; 10 µM, 72 h): 0%
Motor Activity Reduction (%) Significant M ([1]; 10 µM, 72 h): 0%
Motor Activity Reduction (%) Slight M ([1]; 10 µM, 72 h): 0%
Dead Worms (%) F ([1]; 10 µM, 96 h): 0%
Motor Activity Reduction (%) Significant F ([1]; 10 µM, 96 h): 0%
Motor Activity Reduction (%) Slight F ([1]; 10 µM, 96 h): 0%
Dead Worms (%) M ([1]; 10 µM, 96 h): 0%
Motor Activity Reduction (%) Significant M ([1]; 10 µM, 96 h): 0%
Motor Activity Reduction (%) Slight M ([1]; 10 µM, 96 h): 0%
Dead Worms (%) F ([1]; 25 µM, 24 h): 0%
Motor Activity Reduction (%) Significant F ([1]; 25 µM, 24 h): 0%
Motor Activity Reduction (%) Slight F ([1]; 25 µM, 24 h): 0%
Dead Worms (%) M ([1]; 25 µM, 24 h): 0%
Motor Activity Reduction (%) Significant M ([1]; 25 µM, 24 h): 0%
Motor Activity Reduction (%) Slight M ([1]; 25 µM, 24 h): 0%
Dead Worms (%) F ([1]; 25 µM, 48 h): 0%
Motor Activity Reduction (%) Significant F ([1]; 25 µM, 48 h): 0%
Motor Activity Reduction (%) Slight F ([1]; 25 µM, 48 h): 0%
Dead Worms (%) M ([1]; 25 µM, 48 h): 0%
Motor Activity Reduction (%) Significant M ([1]; 25 µM, 48 h): 0%
Motor Activity Reduction (%) Slight M ([1]; 25 µM, 48 h): 0%
Dead Worms (%) F ([1]; 25 µM, 72 h): 0%
Motor Activity Reduction (%) Significant F ([1]; 25 µM, 72 h): 0%
Motor Activity Reduction (%) Slight F ([1]; 25 µM, 72 h): 0%
Dead Worms (%) M ([1]; 25 µM, 72 h): 0%
Motor Activity Reduction (%) Significant M ([1]; 25 µM, 72 h): 0%
Motor Activity Reduction (%) Slight M ([1]; 25 µM, 72 h): 0%
Dead Worms (%) F ([1]; 25 µM, 96 h): 0%
Motor Activity Reduction (%) Significant F ([1]; 25 µM, 96 h): 0%
Motor Activity Reduction (%) Slight F ([1]; 25 µM, 96 h): 0%
Dead Worms (%) M ([1]; 25 µM, 96 h): 0%
Motor Activity Reduction (%) Significant M ([1]; 25 µM, 96 h): 0%
Motor Activity Reduction (%) Slight M ([1]; 25 µM, 96 h): 0%
Dead Worms (%) F ([1]; 50 µM, 24 h): 0%
Motor Activity Reduction (%) Significant F ([1]; 50 µM, 24 h): 0%
Motor Activity Reduction (%) Slight F ([1]; 50 µM, 24 h): 0%
Dead Worms (%) M ([1]; 50 µM, 24 h): 0%
Motor Activity Reduction (%) Significant M ([1]; 50 µM, 24 h): 0%
Motor Activity Reduction (%) Slight M ([1]; 50 µM, 24 h): 0%
Dead Worms (%) F ([1]; 50 µM, 48 h): 0%
Motor Activity Reduction (%) Significant F ([1]; 50 µM, 48 h): 0%
Motor Activity Reduction (%) Slight F ([1]; 50 µM, 48 h): 0%
Dead Worms (%) M ([1]; 50 µM, 48 h): 0%
Motor Activity Reduction (%) Significant M ([1]; 50 µM, 48 h): 0%
Motor Activity Reduction (%) Slight M ([1]; 50 µM, 48 h): 0%
Dead Worms (%) F ([1]; 50 µM, 72 h): 0%
Motor Activity Reduction (%) Significant F ([1]; 50 µM, 72 h): 0%
Motor Activity Reduction (%) Slight F ([1]; 50 µM, 72 h): 0%
Dead Worms (%) M ([1]; 50 µM, 72 h): 0%
Motor Activity Reduction (%) Significant M ([1]; 50 µM, 72 h): 0%
Motor Activity Reduction (%) Slight M ([1]; 50 µM, 72 h): 0%
Dead Worms (%) F ([1]; 50 µM, 96 h): 0%
Motor Activity Reduction (%) Significant F ([1]; 50 µM, 96 h): 0%
Motor Activity Reduction (%) Slight F ([1]; 50 µM, 96 h): 0%
Dead Worms (%) M ([1]; 50 µM, 96 h): 0%
Motor Activity Reduction (%) Significant M ([1]; 50 µM, 96 h): 0%
Motor Activity Reduction (%) Slight M ([1]; 50 µM, 96 h): 0%
activity against S. mansoni adult worms (in words) ([1]; analogues 50, 25, 10 and 5 μM, piplartine 5 and 10 μM, up to 96 h): did not exhibit antischistosome activity at the concentrations tested
effect on NIH-3T3 cell viability (in words) ([2]; MTT, 24 h exposure, 25 to 800 µg/mL): considerable reduction in cell viability at concentrations of 400 and 800 μg/mL; also recorded: showed toxicity at 200, 400 and 800 μg/mL
Emax at 800 µg/mL ([2]; Mus musculus, NIH3T3, 24 h, decrease in cell viability at the maximum concentration tested (800 μg/mL), NIH-3T3, 24 h): 95.69 ± 0.79%
effect on J774A.1 cell viability (in words) [3]: significantly altered (p < 0.05) cell viability in comparison with the negative control, but not in a toxic manner
